SMILES strings stand for the structures.

The test system of the experiment is TNF-α. Nature of the experiment: Inhibition of TNF-α in lipopolysaccharide (LPS) stimulated human monocytic THP-1 cells. The note with it: LPS (1 μg/mL) stimulated THP-1 cells, 4 hours incubation, human TNF-α by ELISA. It counts as cell-based. An excerpt: In addition, Tumor Necrosis Factor, TNF-α, inhibition can be measured by utilizing lipopolysaccharide (LPS) stimulated human monocytic cells (THP-1) as described in: • i) K. M. Mohler et al., “Protection Against a Lethal Dose of Endotoxin by an Inhibitor of Tumour Necrosis Factor Processing”, Nature, 370, pp 218-220 (1994). • ii) U.S. Pat. No. 6,297,381 B1 Cirillo et al., issued Oct. 2, 2001, incorporated by reference and reproduced herein below in relevant portion thereof.
The inhibition of cytokine production can be observed by measuring inhibition of TNF-α in lipopolysaccharide stimulated THP-1 cells. All cells and reagents are diluted in RPMI 1640 with phenol red and L-glutamine, supplemented with additional L-glutamine (total: 4 mM), penicillin and streptomycin (50 units/mL each) and fetal bovine serum (FBS 3%) (GIBCO, all conc. Final). Assay is performed under sterile conditions, only test compound preparation is non-sterile. Initial stock solutions are made in DMSO followed by dilution into RPMI 1640 2-fold higher than the desired final assay concentration. Confluent THP-1 cells ([…], final conc.; American Type Culture Company, Rockville, Md.) are added to 96 well polypropylene round bottomed culture plates (Costar 3790; sterile) containing 125 μL test compound (2-fold concentrated) or DMSO vehicle (controls, blanks). DMSO concentration should not exceed 0.2% final. Cell mixture is allowed to preincubate for 15 minutes at 37° C., 5% CO2 prior to stimulation with lipopolysaccharide (LPS, 1 μg/mL final; Sigma L-2630, from E. coli serotype 0111.B4; stored as 1 mg/mL stock in endotoxin screened diluted H2O vehicle at −80° C.). Blanks (unstimulated) receive H2O vehicle; final incubation volume is 250 μL. Incubation (4 hours) proceeds as described above. Assay is to be terminated by centrifuging plates 5 minutes at room temperature, 1600 rpm ([…]); supernatants are then transferred to clean 96 well plates and stored at −80° C. until analyzed for human TNF-α by a commercially available ELISA kit (Biosource #KHC3015, Camarillo, Calif.). The calculated IC50 value is the concentration of the test compound that caused a 50% decrease in the maximal TNF-α production.
A general note: ELISA stands for enzyme-linked immunosorbent assay.
Take `CCNC(=O)N(c1ccc(OCC)cc1)c1ccnc(N[C@@H](C)COC)n1` [1-(4-Ethoxyphenyl)-1-{2-[(1S)-2-methoxy-1-methyl-ethylamino]-pyrimidin-4-yl}-3-ethyl-urea]: half-maximal inhibition (IC50) was put at 276 nM.

Compound `CCNC(=O)N(c1ccc(F)cc1)c1ccnc(NC(C)C)n1` [1-(4-Fluorophenyl)-1-[2-(iso-propylamino)-pyrimidin-4-yl]-3-ethyl-urea] displayed an IC50 of 28 nM.

In the case of `CCNC(=O)N(c1ccc(F)cc1)c1ccnc(NC2CCOCC2)n1` [1-(4-Fluorophenyl)-1-[2-(tetrahydro-pyran-4-ylamino)-pyrimidin-4-yl]-3-ethyl-urea], the midpoint of inhibition, the IC50, lay at 86 nM.

Take `CCNC(=O)N(c1ccc(F)cc1)c1ccnc(N[C@@H](C)C(C)(C)O)n1` [1-(4-Fluorophenyl)-1-{2-[(1S)-2-hydroxy-1,2-dimethyl-propylamino]-pyrimidin-4-yl}-3-ethyl-urea]: the IC50 worked out at 30 nM.

In turn, `CCNC(=O)N(c1ccc(OC)cc1)c1ccnc(N[C@@H](C)C(C)(C)O)n1` [1-(4-Methoxyphenyl)-1-{2-[(1S)-2-hydroxy-1,2-dimethyl-propylamino]-pyrimidin-4-yl}-3-ethyl-urea] gave an IC50 of 16 nM.

For the compound `CCCCNC(=O)N(c1ccc(OC)cc1)c1ccnc(N[C@@H](C)COC)n1` [1-(4-Methoxyphenyl)-1-{2-[(1S)-2-methoxy-1-methyl-ethylamino]-pyrimidin-4-yl}-3-butyl-urea], half-maximal inhibition (IC50) was put at 324 nM.

`CCNC(=O)N(c1ccc(OC)cc1)c1ccnc(N[C@@H](C)COC)n1` [1-(4-Methoxyphenyl)-1-{2-[(1S)-2-methoxy-1-methyl-ethylamino]-pyrimidin-4-yl}-3-ethyl-urea]: the IC50 is 666 nM.

The compound `CCNC(=O)N(c1ccc(SC)cc1)c1ccnc(N[C@@H](C)COC)n1` [1-(4-Methylsulfanylphenyl)-1-{2-[(1S)-2-methoxy-1-methyl-ethylamino]-pyrimidin-4-yl}-3-ethyl-urea] came in with a 50% inhibitory concentration (IC50) of 26 nM.

In general, IC50 refers to the concentration needed to halve the response being measured.
